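GI50 = concentration required for 50% inhibition of growth. Definition used: TGI = concentration required for complete inhibition of growth.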
Legend:
Test in all cases: inhibition of tumour cell growth, NCI panel, 384-well format
[1] = test system: SK-OV-3 ovarian
[2] = test system: OVCAR-4 ovarian
[3] = test system: 786-0 renal
[4] = test system: LOX IMVI melanoma
[5] = test system: ACHN renal
[6] = test system: HT29 colon
[7] = test system: MALME-3M melanoma
[8] = test system: PC-3 prostate
[9] = test system: HOP-92 NSCLC
[10] = test system: NCI-H23 lung
[11] = test system: OVCAR-8 ovarian
[12] = test system: UACC-257 melanoma
[13] = test system: MDA-MB-468 breast
[14] = test system: CCRF-CEM leukemia
[15] = test system: SK-MEL-28 melanoma
[16] = test system: NCI-H322M lung
[17] = test system: NCI-H522 lung
[18] = test system: OVCAR-3 ovarian
[19] = test system: M14 melanoma
[20] = test system: U251 glioblastoma
[21] = test system: HL-60(TB) leukemia
[22] = test system: BT-549 breast
[23] = test system: IGROV1 ovarian
[24] = test system: HS 578T breast
[25] = test system: COLO 205 colon
[26] = test system: CAKI-1 renal
[27] = test system: K-562 leukemia
[28] = test system: NCI-H226 lung
[29] = test system: MCF7 breast
[30] = test system: EKVX NSCLC
[31] = test system: TK-10 renal
[32] = test system: HOP-62 NSCLC
[33] = test system: SN12C renal
[34] = test system: HCT-116 colon
[35] = test system: A498 renal
[36] = test system: SF-539 CNS
[37] = test system: SF-268 CNS
[38] = test system: HCT-15 colon
[39] = test system: KM12 colon
[40] = test system: NCI/ADR-RES ovarian
[41] = test system: MOLT-4 leukemia
[42] = test system: A549 NSCLC
[43] = test system: UACC-62 melanoma
[44] = test system: RPMI-8226 leukemia
[45] = test system: SK-MEL-2 melanoma
[46] = test system: SNB-75 CNS
[47] = test system: MDA-MB-435 melanoma
[48] = test system: SW-620 colon
[49] = test system: SF-295 CNS
[50] = test system: SNB-19 CNS
[51] = test system: DU-145 prostate
[52] = test system: RXF 393 renal
[53] = test system: SK-MEL-5 melanoma
[54] = test system: HCC-2998 colon
[55] = test system: NCI-H460 NSCLC
[56] = test system: SR leukemia
[57] = test system: T-47D breast
[58] = test system: MDA-MB-231 breast

## CC(C)NC(=O)OCc1c(COC(=O)NC(C)C)c(-c2ccc(Cl)c(Cl)c2)n2c1SCC2
[1]
  GI50: 3260 nM
  TGI: 11400 nM
[2]
  GI50: 3300 nM
  TGI: 17500 nM
[3]
  GI50: 4310 nM
  TGI: 15800 nM
[4]
  GI50: 1840 nM
  TGI: 13600 nM
[5]
  GI50: 2310 nM
  TGI: 7850 nM
[6]
  GI50: 10400 nM
  TGI: 25000 nM
[7]
  GI50: 5060 nM
  TGI: 17800 nM
[8]
  GI50: 10800 nM
  TGI: 25500 nM
[9]
  GI50: 2580 nM
  TGI: 11400 nM
[10]
  GI50: 1830 nM
  TGI: 4260 nM
[11]
  GI50: 5970 nM
  TGI: 19100 nM
[12]
  GI50: 10200 nM
  TGI: 22400 nM
[13]
  GI50: 34.4 nM
  TGI: 936 nM
[14]
  GI50: 2070 nM
  TGI: 4950 nM
[15]
  GI50: 12700 nM
  TGI: 26100 nM
[16]
  GI50: 7600 nM
  TGI: 21700 nM
[17]
  GI50: 2090 nM
  TGI: 13800 nM
[18]
  GI50: 2990 nM
  TGI: 14100 nM
[19]
  GI50: 3750 nM
  TGI: 14100 nM
[20]
  GI50: 5160 nM
  TGI: 18400 nM
[21]
  GI50: 1270 nM
  TGI: 2580 nM
[22]
  GI50: 3920 nM
  TGI: 15300 nM
[23]
  GI50: 1250 nM
  TGI: 4550 nM
[24]
  GI50: 4850 nM
  TGI: 17300 nM
[25]
  GI50: 8390 nM
  TGI: 21700 nM
[26]
  GI50: 1480 nM
  TGI: 3440 nM
[27]
  GI50: 10300 nM
  TGI: 22600 nM
[28]
  GI50: 850 nM
  TGI: 2350 nM
[29]
  GI50: 4210 nM
  TGI: 27000 nM
[30]
  GI50: 13100 nM
  TGI: 26700 nM
[31]
  GI50: 1630 nM
  TGI: 6150 nM
[32]
  GI50: 1890 nM
  TGI: 4660 nM
[33]
  GI50: 3880 nM
  TGI: 14100 nM
[34]
  GI50: 4000 nM
  TGI: 19800 nM
[35]
  GI50: 386 nM
  TGI: 1760 nM
[36]
  GI50: 5160 nM
  TGI: 18700 nM
[37]
  GI50: 3180 nM
  TGI: 10300 nM
[38]
  GI50: 5970 nM
  TGI: 19800 nM
[39]
  GI50: 7210 nM
  TGI: 21600 nM
[40]
  GI50: 3000 nM
  TGI: 13200 nM
[41]
  GI50: 1100 nM
  TGI: 2300 nM
[42]
  GI50: 10200 nM
  TGI: 23900 nM
[43]
  GI50: 1680 nM
  TGI: 4980 nM
[44]
  GI50: 1790 nM
  TGI: 5030 nM
[45]
  GI50: 1830 nM
  TGI: 4490 nM
[46]
  GI50: 2270 nM
  TGI: 12700 nM
[47]
  GI50: 13000 nM
  TGI: 25800 nM
[48]
  GI50: 5810 nM
  TGI: 19600 nM
[49]
  GI50: 3180 nM
  TGI: 10100 nM
[50]
  GI50: 9070 nM
  TGI: 27700 nM
[51]
  GI50: 5540 nM
  TGI: 20700 nM
[52]
  GI50: 2640 nM
  TGI: 10500 nM
[53]
  GI50: 4330 nM
  TGI: 17800 nM
[54]
  GI50: 687 nM
  TGI: 14700 nM
[55]
  GI50: 2560 nM
  TGI: 11400 nM

## Nc1ccccc1NC(=O)c1ccc(CNc2nccc(-c3cccnc3)n2)cc1
[1]
  GI50: 258 nM
  TGI: 1380 nM
[2]
  GI50: 371 nM
  TGI: 1670 nM
[3]
  GI50: 390 nM
  TGI: 2360 nM
[4]
  GI50: 175 nM
  TGI: 322 nM
[5]
  GI50: 348 nM
  TGI: 1200 nM
[6]
  GI50: 285 nM
  TGI: 1120 nM
[7]
  GI50: 150 nM
  TGI: 298 nM
[8]
  GI50: 408 nM
  TGI: 8810 nM
[9]
  GI50: 219 nM
  TGI: 823 nM
[10]
  GI50: 248 nM
  TGI: 1320 nM
[11]
  GI50: 242 nM
  TGI: 1180 nM
[12]
  GI50: 169 nM
  TGI: 344 nM
[13]
  GI50: 234 nM
  TGI: 592 nM
[14]
  GI50: 131 nM
  TGI: 266 nM
[15]
  GI50: 190 nM
  TGI: 368 nM
[16]
  GI50: 410 nM
  TGI: 1790 nM
[17]
  GI50: 301 nM
  TGI: 1390 nM
[18]
  GI50: 374 nM
  TGI: 1680 nM
[19]
  GI50: 456 nM
  TGI: 1640 nM
[56]
  GI50: 32.6 nM
  TGI: 148 nM
[20]
  GI50: 159 nM
  TGI: 333 nM
[21]
  GI50: 113 nM
  TGI: 236 nM
[22]
  GI50: 497 nM
  TGI: 2390 nM
[23]
  GI50: 235 nM
  TGI: 808 nM
[24]
  GI50: 217 nM
  TGI: 498 nM
[25]
  GI50: 292 nM
  TGI: 741 nM
[26]
  GI50: 318 nM
  TGI: 1200 nM
[27]
  GI50: 120 nM
  TGI: 357 nM
[28]
  GI50: 543 nM
  TGI: 2120 nM
[29]
  GI50: 213 nM
  TGI: 1090 nM
[30]
  GI50: 766 nM
  TGI: 18100 nM
[31]
  GI50: 244 nM
  TGI: 1180 nM
[32]
  GI50: 255 nM
  TGI: 1260 nM
[33]
  GI50: 593 nM
  TGI: 1850 nM
[34]
  GI50: 136 nM
  TGI: 350 nM
[35]
  GI50: 261 nM
  TGI: 1110 nM
[36]
  GI50: 473 nM
  TGI: 2490 nM
[37]
  GI50: 225 nM
  TGI: 555 nM
[38]
  GI50: 336 nM
  TGI: 1310 nM
[39]
  GI50: 400 nM
  TGI: 3850 nM
[40]
  GI50: 332 nM
  TGI: 1270 nM
[41]
  GI50: 150 nM
  TGI: 285 nM
[42]
  GI50: 621 nM
  TGI: 2370 nM
[57]
  GI50: 198 nM
  TGI: 409 nM
[58]
  GI50: 371 nM
  TGI: 3250 nM
[44]
  GI50: 28.2 nM
  TGI: 75.2 nM
[46]
  GI50: 386 nM
  TGI: 7580 nM
[47]
  GI50: 209 nM
  TGI: 419 nM
[48]
  GI50: 208 nM
  TGI: 657 nM
[49]
  GI50: 159 nM
  TGI: 306 nM
[50]
  GI50: 740 nM
  TGI: 2540 nM
[51]
  GI50: 302 nM
  TGI: 1420 nM
[52]
  GI50: 114 nM
  TGI: 426 nM
[53]
  GI50: 196 nM
  TGI: 359 nM
[54]
  GI50: 342 nM
  TGI: 1200 nM
[55]
  GI50: 216 nM
  TGI: 1300 nM

## CN1CCC(COc2cnc(-c3cccc(Cn4nc(-c5cccc(C#N)c5)ccc4=O)c3)nc2)CC1
[1]
  GI50: > 100000 nM
  TGI: > 100000 nM
[3]
  GI50: 1690 nM
  TGI: 3220 nM
[4]
  GI50: 1710 nM
  TGI: 3100 nM
[5]
  GI50: 2050 nM
  TGI: 3760 nM
[6]
  GI50: 1740 nM
  TGI: 3150 nM
[7]
  GI50: 1590 nM
  TGI: 2930 nM
[9]
  GI50: 1720 nM
  TGI: 3400 nM
[19]
  GI50: 2090 nM
  TGI: 3530 nM
[21]
  GI50: 1570 nM
  TGI: 2910 nM
[22]
  GI50: 1440 nM
  TGI: 2760 nM
[23]
  GI50: 2170 nM
  TGI: 4160 nM
[24]
  GI50: 1480 nM
  TGI: 2850 nM
[25]
  GI50: 2460 nM
  TGI: 5350 nM
[26]
  GI50: 1730 nM
  TGI: 3200 nM
[29]
  GI50: 1680 nM
  TGI: 3360 nM
[30]
  GI50: 2770 nM
  TGI: 6490 nM
[32]
  GI50: 1960 nM
  TGI: 3770 nM
[33]
  GI50: > 100000 nM
  TGI: > 100000 nM
[34]
  GI50: 1750 nM
  TGI: 3160 nM
[35]
  GI50: 2040 nM
  TGI: 3620 nM
[38]
  GI50: 1450 nM
  TGI: 2940 nM
[39]
  GI50: 2380 nM
  TGI: 4810 nM
[42]
  GI50: 2200 nM
  TGI: 4560 nM
[58]
  GI50: 1940 nM
  TGI: 3410 nM
[51]
  GI50: 2530 nM
  TGI: 5890 nM
[52]
  GI50: 1320 nM
  TGI: 2640 nM
[54]
  GI50: 3200 nM
  TGI: 5670 nM

Reference: PubChem BioAssay (NCI)
